Literature values as cited in patent US20050070607A1, “N-acetylcysteine compositions and methods for the treatment and prevention of cysteine/glutathione deficiency in diseases and conditions” (priority 2003, published 2005).
Where two headings read alike, the source gives them in different places.

Legend:
[1] = test system: patients with high plasma Lp(a); conditions: plasma homocysteine; Lp(a) >0.3 g/l; 4000 mg daily po; n 11; 14 days; Wiklund 1996[277]
[2] = test system: Hepatic transplant patients; conditions: oxygen delivery and consumption, base deficit; 150 mg/kg for 15 min; 12.5 mg/kg for 4 h; n 50; 5 hours; Bromley 1995[19]
[3] = test system: influenza or influenza-like episodes; conditions: frequency and severity of episodes, elderly and chronic non-respiratory disease; 1200 mg/day po; n 262; 6 months; De Flora 1997[46]
[4] = test system: patients who have already developed fulminant hepatic failure; conditions: observational study, one hundred patients [138]
[5] = test system: normal subjects breathing against high inspiratory loads; conditions: development of diaphragm fatigue; 150 mg/kg IV; n 4; 3 weeks; Travaline 1997[37]
cardiac risk patients = conditions: oxygen consumption, cardiac index, ST-depression during brief hyperoxia; 150 mg/kg IV; n 30; 30 min; Spies 1996[11]
Hyperoxic ventilation = conditions: whole body oxygen uptake, oxygen extraction ratio, gastric intramucosal pH; IV over 15 min; n 38; 72 hours; Reinhart 1995[266]
[6] = test system: patients with polycystic ovary syndrome; conditions: circulating insulin levels and insulin sensitivity; 1.8-3 g daily depending on weight; n 33; 6 weeks; Fulghesu 2002[20]

Question: Which “side effect reported for NAC treatment for inflammatory conditions” value (not found clinically significant [106]) does the source give for `CC(=O)N[C@@H](CS)C(=O)O` [NAC, N-acetylcysteine] here?
Answer: mild to moderate anticoagulation

Question: What about the “adverse responses to intravenous NAC administration” value (several reports [163,249-256]) of the same compound?
Answer: anaphylactoid and allergic responses

Question: What about the Beneficial effects [1] of the same compound?
Answer: Beneficial

Question: What about the Treatment effect [2] of the same compound?
Answer: Beneficial

Question: And the Beneficial effects [3]?
Answer: Beneficial

Question: What about the “Hearing loss and cochlear damage from aminoglycoside antibiotics and cisplatin” value (cochlea; animal models [245-247]) of the same compound?
Answer: greatly reduced

Question: And the “permanent cochlear damage due to acute acoustic overexposure” value (cochlea; animal models, systemic administration [246,248])?
Answer: almost completely prevented

Question: And the survival [4]?
Answer: significantly increased survival

Question: And the Beneficial effects [5]?
Answer: Beneficial

Question: What about the “time for elevated serum lactate levels to return to normal vs placebo” value (severe malaria; 300 mg/kg intravenously over 20 hours, 30 subjects [51]) of the same compound?
Answer: twice as quickly

Question: What about the Beneficial effects (severe malaria; quinine-treated malaria, serum lactate, 300 mg/kg IV, n 30, 20 hours, Watt 2002[51]) of the same compound?
Answer: Beneficial

Question: And the Beneficial effects (Bronchitis; General Health Questionnaire score, mild chronic bronchitis, 1200 mg/day po, n 153, 22 weeks, Hansen 1994[34])?
Answer: Beneficial

Question: What about the Beneficial effects (Bronchitis; days incapacitated, 600 mg/day po, n 526, 6 months, Parr and Huitson 1987[31]) of the same compound?
Answer: Beneficial

Question: What about the Beneficial effects (Bronchitis; difficulty in expectoration and cough severity, 600 mg/day po, n 155, 3 months, Jackson 1984[30]) of the same compound?
Answer: Beneficial

Question: What about the Beneficial effects (Bronchitis; evening peak flows after NAC pre-treatment, 1200 mg/day po, n 37, 22 weeks, Evald 1989[33]) of the same compound?
Answer: Beneficial

Question: And the Beneficial effects (Bronchitis; exacerbation rate, 400 mg/day po, n 259, 6 months, Boman 1983[29])?
Answer: Beneficial

Question: And the Beneficial effects (Bronchitis; frequency of exacerbations, 600 mg/day, 3 days/wk, po, n 69, 6 months, Grassi and Morandini 1976[24])?
Answer: Beneficial

Question: And the Beneficial effects (Bronchitis; sick-leave days caused by exacerbations, 600 mg/day po, n 116, 6 months, Rasmussen and Glennow 1988[32])?
Answer: Beneficial

Question: What about the Beneficial effects (Bronchitis; sputum consistency, expectoration, peak expiratory flow rate, 600 mg/day po, n 29, 4 weeks, Aylward 1980[25]) of the same compound?
Answer: Beneficial

Question: And the Beneficial effects (Bronchitis; sputum thickness, expectoration, exacerbations, 400 mg/day po, n 744, 6 months, Grassi 1980, Ferrari 1980[27,28])?
Answer: Beneficial

Question: And the Beneficial effects (Bronchitis; sputum volume and viscosity, acute and chronic bronchitis, 600 mg/day po, n 215, 10 days, Brocard 1980[26])?
Answer: Beneficial

Question: And the Beneficial effects (acute lung injury; RBC GSH, days of acute lung injury, cardiac index, NAC 70 mg/kg q 8 hr IV, OTZ 63 mg/kg q 8 hr IV, n 48, 10 days, Bernard 1997[222])?
Answer: Beneficial

Question: And the Beneficial effects (acute lung injury; elastase activity, pretreatment 72 mg/kg bolus, 72 mg/kg over 12 hours IV, n 18, 12 hours, De Backer 1996[214])?
Answer: Beneficial

Question: And the Beneficial effects (acute lung injury; mild-to-moderate ALI, systemic oxygenation, need for ventilatory support, 40 mg/kg/day IV, n 61, 3 days, Suter 1994[211])?
Answer: Beneficial

Question: What about the Beneficial effects (HIV infected individuals; CD4 counts > 200/ul, plasma cysteine, rate of CD4 decline, 800 mg/day po, n 45, 4 months, Akerlund 1996[47]) of the same compound?
Answer: Beneficial

Question: What about the Beneficial effects (HIV infected individuals; beginning of antiretroviral therapy, hematocrit, CD4 cell count, 600 mg/day, n 20, 180 days, Spada 2002[227]) of the same compound?
Answer: Beneficial

Question: And the Beneficial effects (HIV infected individuals; immune function, 0.6-3.6 g depending on GSH levels po, n 69, 7 months, Breitkreutz 2000[50])?
Answer: Beneficial

Question: What about the “adverse events, highest reported long-term NAC dosage” value (HIV infected individuals; in vivo) of the same compound?
Answer: No adverse events requiring physician intervention

Question: And the Beneficial effects (HIV infected individuals; whole blood GSH and T cell GSH, 3,200-8,000 mg/day po, n 81, 8 weeks, De Rosa 2000, Herzenberg 1997[48,49])?
Answer: Beneficial

Question: And the Beneficial effects (cardiac risk patients)?
Answer: Beneficial

Question: And the Treatment effect (Hyperoxic ventilation)?
Answer: Beneficial

Question: And the Beneficial effects [6]?
Answer: Beneficial
